These results are taken from US11179501B2, “Bone morphogenetic protein pathway activation, compositions for ossification, and methods related thereto” (Emory University, priority 2011, dated 2021).

For data set [1], the system named is C2C12 cells. The data set is described as follows: BMP-Noggin competitive alkaline phosphatase (ALP) assay. Format: cell-based, Mouse. Conditions: for Fold increase in Noggin-Inhibition ALP Assay over BMP alone control: BMP-2 90-100 ng/ml plus noggin 100-120 ng/ml, 72 hours; for cell lifting from culture plates: BMP-Noggin competitive ALP assay, low cell number and low yield of protein.
Procedure: (§1) Their activity was evaluated by determining the potentiation of alkaline phosphatase activity in sub-optimal doses of BMP in the presence or absence of exogenously added noggin.
Mouse C2C12 cells and Dulbecco's modified Eagle's medium (DMEM) were purchased from ATCC (Manassas, Va.). The non-heat inactivated fetal bovine serum (FBS) was purchased from HyClone Laboratories, Inc. (Logan, Utah). The C2C12 cells at passages 5 to 10 were subcultured in T-75 cm^2 flasks in DMEM supplemented with 10% FBS at 37° C. in 5% CO2 with humidification. When the flasks reached 80% confluence, the cells were trypsinized and seeded in triplicate.
The C2C12 cells were plated at 200,000 cells/well in 6-well plates and grown overnight in DMEM containing 10% FBS. On day 2, the culture medium was replaced with DMEM containing 2% FBS and the cells were treated with 90-100 ng/ml of BMP-2 (as noted in each experiment), various concentrations of compound, and 100-120 ng/ml of noggin (as noted in each experiment) for 72 hours. The cells were washed with phosphate-buffered saline (PBS) and lysed by addition of lysis buffer (10 mM Tris-HCl pH 8.0, 1 mM MgCl2 and 1.0% Triton X-100). The cell lysates were centrifuged for 5 minutes at 13,000×g. The supernatant was removed and the aliquots were assayed for ALP activity and protein amount. The ALP activity was measured in triplicate using an ALP assay kit (Sigma-Aldrich, St. Louis, Mo.) in microtiter plates. The protein amount was determined with Bio-Rad protein assay reagent (Bio-Rad, Hercules, Calif.) using bovine serum albumin (BSA) as a standard. The ALP activity (nmoles of p-nitrophenol per ml) was normalized to the protein amount (nmoles of p-nitrophenol per μg).

Data set [2] relates to C2C12 cells. The data set is described as follows: Alkaline phosphatase (ALP) assay: potentiation of BMP-2-induced ALP activity. The following applies: for Fold increase in BMP-Potentiated ALP activity over BMP control: C2C12 cells, 50 ng/ml BMP-2, 72 hours.
Procedure: as §1
The BMP-potentiating activities of compounds may be evaluated by monitoring several markers of the osteoblastic phenotype corresponding to various time points during phenotype differentiation of C2C12 cells towards terminally differentiated osteoblasts.
The C2C12 cells at passages 5 to 10 were subcultured in T-75 cm^2 flasks in DMEM supplemented with 10% FBS at 37° C. in 5% CO2 with humidification. When the flasks reached 80% confluence, the cells were trypsinized and seeded in triplicate.
The C2C12 cells were plated at 200,000 cells/well in 6-well plates and grown overnight in DMEM containing 10% FBS. On day 2, the culture medium was replaced with DMEM containing 2% FBS and the cells were treated with various concentrations of compound for 24 hours. On day 3, the culture medium was replaced with DMEM containing 2% FBS and the cells were treated with 50 ng/ml of BMP-2 and various concentrations of compound for 72 hours. The cells were washed with phosphate-buffered saline (PBS) and lysed by addition of lysis buffer (10 mM Tris-HCl pH 8.0, 1 mM MgCl2 and 1.0% Triton X-100). The cell lysates were centrifuged for 5 minutes at 13,000×g. The supernatant was removed and the aliquots were assayed for ALP activity and protein amount. The ALP activity was measured in triplicate using an ALP assay kit (Sigma-Aldrich, St. Louis, Mo.) in microtiter plates. The protein amount was determined with Bio-Rad protein assay reagent (Bio-Rad, Hercules, Calif.) using bovine serum albumin (BSA) as a standard. The ALP activity (nmoles of p-nitrophenol per ml) was normalized to the protein amount (nmoles of p-nitrophenol per μg).
Another data set deals with Sprague Dawley rats. As to the kind of experiment: Collagen disc implantation with macrolides in rat ectopic model. Format: in vivo. Set-up: Ave. (Xray score): scale not given here. Conditions: for Ave. (Xray score) / Results (bone, animals with bone of 4): 100 ul, collagen, no BMP-2, 4 weeks. From the text:
Sprague Dawley rats about 5-6 weeks of age were chest implanted with a collagen disc (diameter of 1.0 cm and height of 2.0 mm; total volume of 150 cubic millimeters) and doses of macrolides in the absence of BMP-2. After 4 weeks the rats were sacrificed and evaluated for bone growth. […] In certain embodiments, the disclosure contemplates local bone formation for fracture repair, segmental bone defects, spine fusion, bone grafting, and regional bone enhancement for osteopenic bones before they fracture (e.g. hip, vertebral body, etc) by deliver locally to induce local bone formation.

As for `CC(=O)NC[C@H]1CN(c2ccc(N3CCOCC3)c(F)c2)C(=O)O1` [Linezolid, N-[[(5S)-3-[3-fluoro-4-(4-morpholinyl)phenyl]-2-oxo-5-oxazolidinyl]methyl]-acetamide], the “Fold increase in Noggin-Inhibition ALP Assay over BMP alone control” value in the data set on C2C12 cells [1] came to 3. In the data set with C2C12 cells [2], the “Fold increase in BMP-Potentiated ALP activity over BMP control” value (“Fold increase … over BMP control” below) was determined as 5.

In the case of `CC1=C(/C=C/C(C)=C/C=C/C(C)=C\C(=O)O)C(C)(C)CCC1` [Isotretinoin, isotretinoin], the “Fold increase in Noggin-Inhibition ALP Assay over BMP alone control” value in the data set on C2C12 cells [1] came to 3. Also, the “Fold increase … over BMP control” value with C2C12 cells [2] amounted to 30.

`COc1cc(C)c(/C=C/C(C)=C/C=C/C(C)=C/C(=O)O)c(C)c1C` [Acitretin, acitretin]: in the data set with C2C12 cells [1], the “Fold increase in Noggin-Inhibition ALP Assay over BMP alone control” value is given as 3. Besides, the “Fold increase … over BMP control” value with C2C12 cells [2] came out at 33.

As for `CCCc1nc2c(C)cc(-c3nc4ccccc4n3C)cc2n1Cc1ccc(-c2ccccc2C(=O)O)cc1` [Telmisartan, 4′-((1,7′-dimethyl-2′-propyl-1H,3′H-[2,5′-bibenzo[d]imidazol]-3′-yl)methyl)[1,1′-biphenyl]-2-carboxylic acid], the “Fold increase in Noggin-Inhibition ALP Assay over BMP alone control” value in the data set on C2C12 cells [1] is 3. In addition, the “Fold increase … over BMP control” value in the data set on C2C12 cells [2] is on record as 3.

Regarding `COc1cc(CNC(=O)CCCCC=CC(C)C)ccc1O` [Capsaicin, N-(4-hydroxy-3-methoxybenzyl)-8-methylnon-6-enamide], in the data set on C2C12 cells [1], the “cell lifting from culture plates” value is given as “caused cell lifting from culture plates”.

As for `O=C(O)CCCc1ccc(N(CCCl)CCCl)cc1` [Chlorambucil, chlorambucil], the “Fold increase in Noggin-Inhibition ALP Assay over BMP alone control” value with C2C12 cells [1] is given as 4. Besides, the “Fold increase … over BMP control” value in the data set with C2C12 cells [2] amounted to 3.

For the compound `C=CCC1C=C(C)CC(C)CC(OC)C2OC(O)(C(=O)C(=O)N3CCCCC3C(=O)OC(/C(C)=C/C3CCC(O)C(OC)C3)C(C)C(O)CC1=O)C(C)CC2OC` (stereo not drawn) [Tacrolimus, 5,6,8,11,12,13,14,15, 16,17,18,19,24,25,26,26a-hexadecahydro-5,19-dihydroxy-3-[(1E)-2-[4-hydroxy-3-methoxycyclohexyl]-1-methylethenyl]-14,16-dimethoxy-4,10,12,18-tetramethyl-8-(2-propen-1-yl)-15,19-epoxy-3H-pyrido[2,1-c][1,4]oxaazacyclotricosine-1,7,20,21(4H,23H)-tetrone], in the data set on C2C12 cells [1], the “Fold increase in Noggin-Inhibition ALP Assay over BMP alone control” value is 5. For the same compound, the “Ave. (Xray score)” value with Sprague Dawley rats (dose 10 mM) is 0; with Sprague Dawley rats (dose 15 mM), 0.5; with Sprague Dawley rats (dose 20 mM), 3.25; in the data set on Sprague Dawley rats (dose 25 mM) it was 4.25; in the data set with Sprague Dawley rats (dose 30 mM), 2.5; with Sprague Dawley rats (dose 35 mM), 4. For the same compound, the “Results (bone, animals with bone of 4)” value is reported as “No bone (0 of 4)” in the data set on Sprague Dawley rats (dose 10 mM); “Bone (1 of 4)” in the data set with Sprague Dawley rats (dose 15 mM); “Bone (3 of 4)” with Sprague Dawley rats (dose 20 mM); “Bone (4 of 4)” in the data set with Sprague Dawley rats (dose 25 mM); “Bone (3 of 4)” in the data set with Sprague Dawley rats (dose 30 mM); “Bone (4 of 4)” in the data set with Sprague Dawley rats (dose 35 mM). For the same compound, the “De novo bone formation” value with Sprague Dawley rats (local, collagen disc, chest implant, absence of BMP-2, 4 weeks) is “De novo bone formation is demonstrated locally”. Moreover, in the data set on C2C12 cells [2], the “Fold increase … over BMP control” value was 7.

In the case of `Nc1ccn([C@@H]2O[C@H](CO)[C@@H](O)[C@@H]2O)c(=O)n1` [cytarabine], the “cell lifting from culture plates” value in the data set with C2C12 cells [1] is reported as “caused cell lifting from culture plates”.

For `CC1=C(/C=C/C(C)=C/C=C/C(C)=C/C(=O)O)C(C)(C)CCC1` [Retinoic acid, (2E,4E,6E,8E)-3,7-dimethyl-9-(2,6,6-trimethylcyclohexen-1-yl)nona-2,4,6,8-tetraenoic acid], in the data set on C2C12 cells [1], the “Fold increase in Noggin-Inhibition ALP Assay over BMP alone control” value is listed as 2. For the same compound, in the data set on C2C12 cells [2], the “Fold increase … over BMP control” value worked out at 11.

For the compound `Clc1ccc(CON=C(Cn2ccnc2)c2ccc(Cl)cc2Cl)c(Cl)c1` [oxiconazole nitrate, 1-(2,4-dichlorophenyl)-2-(1H-imidazol-1-yl)ethanone O-(2,4-dichlorobenzyl) oxime], in the data set on C2C12 cells [1], the “cell lifting from culture plates” value is listed as “caused cell lifting from culture plates”.

`Clc1ccccc1C(c1ccccc1)(c1ccccc1)n1ccnc1` [Clotrimazole, 1-[(2-chlorophenyl)diphenylmethyl]-1H-imidazole]: the “Fold increase in Noggin-Inhibition ALP Assay over BMP alone control” value with C2C12 cells [1] was 4. Besides, in the data set on C2C12 cells [2], the “Fold increase … over BMP control” value was 7. For the same compound, the “BMP-induced ALP activity” value in the data set with C2C12 cells [2] (nanomolar concentrations, FIG. 5) is recorded as “dose dependent increase”.

Turning to `CCOC(=O)C1=C(C)NC(C)=C(C(=O)OC)C1c1cccc(Cl)c1Cl` (stereo not drawn) [felodipine], the “cell lifting from culture plates” value with C2C12 cells [1] is reported as “caused cell lifting from culture plates”.

For the compound `CC(=O)N1CCN(c2ccc(OC[C@H]3CO[C@](Cn4ccnc4)(c4ccc(Cl)cc4Cl)O3)cc2)CC1` [Ketoconazole, 1-(4-(4-(((2R,4S)-2-((1H-imidazol-1-yl)methyl)-2-(2,4-dichlorophenyl)-1,3-dioxolan-4-yl)methoxy)phenyl)piperazin-1-yl)ethanone], the “cell lifting from culture plates” value in the data set with C2C12 cells [1] is on record as “caused cell lifting from culture plates”.

`C=CCc1ccc(O)c(-c2ccc(O)c(CC=C)c2)c1` [Honokiol, 3′,5-di-2-propen-1-yl-[1,1′-biphenyl]-2,4′-diol]: the “Fold increase in Noggin-Inhibition ALP Assay over BMP alone control” value with C2C12 cells [1] is listed as 16. In the data set on C2C12 cells [2], the “Fold increase … over BMP control” value is listed as 5.

As for `CC(=O)S[C@@H]1CC2=CC(=O)CC[C@]2(C)[C@H]2CC[C@@]3(C)[C@@H](CC[C@@]34CCC(=O)O4)[C@H]12` [Spironolactone, spironolactone], the “Fold increase in Noggin-Inhibition ALP Assay over BMP alone control” value with C2C12 cells [1] is on record as 4. For the same compound, the “Fold increase … over BMP control” value in the data set on C2C12 cells [2] is recorded as 3.

With `CCC(=O)O[C@]1(C(=O)SCF)[C@H](C)C[C@H]2[C@@H]3C[C@H](F)C4=CC(=O)C=C[C@]4(C)[C@@]3(F)[C@@H](O)C[C@@]21C` [Fluticasone Propionate, 6,9-difluoro-11-hydroxy-16-methyl-3-oxo-17-(1-oxopropoxy)-androsta-1,4-diene-17-carbothioic acid S-(fluoromethyl) ester], in the data set with C2C12 cells [1], the “Fold increase in Noggin-Inhibition ALP Assay over BMP alone control” value is 3. In addition, the “Fold increase … over BMP control” value in the data set with C2C12 cells [2] was 6.

Turning to `Nc1nc2ccc(Cl)cc2c2nc(-c3ccco3)nn12` [CGS 15943, 9-chloro-2-(furan-2-yl)[1,2,4]triazolo[1,5-c]quinazolin-5-amine], the “cell lifting from culture plates” value with C2C12 cells [1] is given as “caused cell lifting from culture plates”.
